Source: US6372212B1, “Chitinase materials and methods” (ICOS Corporation, priority 1996, dated 2002)
In brackets after ≈: the same amount, converted by molar mass. Where two headings read alike, the source gives them in different places.

Assays:
[1] = Chitotriosidase (chitinase) catalytic activity, fluorogenic substrate; type: biochemical
Experimental: Chitotriosidase (chitinase) activity was measured using the fluorogenic substrate 4-methylumbelliferyl-β-D-N,N′,N″-triacetylchitotriose (4 MU-chitotrioside, Sigma Chemical, St. Louis, Mo.) in McIlvain buffer (Hollak et al., supra). Ten μl samples of the recombinant product were combined with 10 itl bovine serum albumin (10 mg/ml), 15 μl fluorogenic substrate (2.71 mM), and 65 μl buffer (0.1M citric acid, 0.2M sodium phosphate, pH 5.2) in a total volume of 100 μl. Reactions were incubated at 37° C. for 15 minutes, then the reaction was stopped with the addition of 2 ml of 0.3M glycine/NaOH buffer (pH 10.6). The fluorescent cleavage product, 4-methylumbelliferone, was monitored with a fluorimeter (SLM-AMINCO Instruments, Inc., Rochester, N.Y.) at 450 nm. […] The known quantity of 4-MU was then correlated to the fluorescence signal from the fluorimeter and linear regression was used to determine a standard curve. The signal produced with diluted purified recombinant chitinase in the assay was then used to interpolate the nm quantity of substrate cleaved by the enzyme during the reaction time. This number was then divided by the concentration of protein to obtain the nm/min per mg protein (determined by A280 and calculated molar extinction coefficient).

[2] = test system: Candida albicans (ATCC no. 90028); test: Agar diffusion assay; type: cell-based; parameters: key: +: Normal growth, no inhibition of growth observed; −: Inhibited fungal growth, zone of inhibition is observed
Experimental: (§1) In additional experiments, the anti-fungal activity of recombinant human chitinase (produced in COS cells as described in Example 5A) was evaluated in an agar diffusion assay, in a broth assay according to National Committee on Clinical Laboratory Standards, and in a cell wall inhibition assay according to Selitrennikoff, Antimicrob. Agents Chemother., 23:757-765 (1983).
In the agar diffusion assay, approximately 1×10^6 cells/ml of Candida albicans (ATCC no. 90028) inoculated into 1.5% agar (RPMI 1640 media buffered with […] (MOPS), pH 7.0. A disk containing 50 μg of the sample (A: recombinant human chitinase, B: buffer control, C: control protein, D: a bacterial lysate with chitinase activity, or a known anti-fungal agent) was placed on the agar, and the zone of growth inhibition was measured. Results are shown in Table 1 below.

[3] = test system: Aspergillus fumigatus; test: Agar diffusion assay; type: cell-based; parameters: key: +: Normal growth, no inhibition of growth observed; −: Inhibited fungal growth, zone of inhibition is observed
[4] = test system: Aspergillus fumigatus (ATCC no. 16424); test: Broth assay; type: cell-based
Experimental: as §1
(§2) In the broth assay, 50 μg/ml of the sample (A: recombinant human chitinase, B: buffer control, C: control protein, D: a bacterial lysate with chitinase activity, or a known anti-fungal agent) was added with a certain concentration of the test fungal organism to RPMI 1640 media buffered with MOPS, pH 7.0. The samples were incubated at 35° C., with shaking at 120 rpm, for 48 hours, and then growth was evaluated by measuring the turbidity of the suspension. The approximate concentrations of the test fungi were as follows: 2.5×10^4 cells/ml of Candida albicans (ATCC no. 90028); 5×10^4 cells/ml of Candida albicans-polyene resistant (ATCC no. 38247); 1 x 10^4 cells/ml of Aspergillus fumigatus (ATCC no. 16424); 1×10^4 cells/ml of Neurospora crassa (ATCC no. 18889); and 1×10^4 cells/ml of Saccharomyces cerevisiae (ATCC no. 26108).

[5] = test system: Candida albicans (ATCC no. 90028); test: Broth assay; type: cell-based; settings: for IC50: lowest concentration inhibiting growth by at least 50%
Experimental: as §1, §2

[6] = test system: Candida albicans-polyene resistant (ATCC no. 38247); test: Broth assay; type: cell-based; settings: for IC50: Candida, ATCC38247, lowest concentration inhibiting growth by at least 50%
Experimental: as §1, §2

[7] = test system: Neurospora crassa (ATCC no. 18889); test: Broth assay; type: cell-based; parameters: key to Neurospora crassa Growth: 0: No fungal growth; 1: growth is 25% of control; 2: growth is 50% of control; 3: growth is 75% of control; 4: growth equivalent to control; 5: growth is greater than control; settings: for IC50: Neurospora crassa, ATCC18889, lowest concentration inhibiting growth by at least 50%
Experimental: as §1, §2

[8] = test system: os-1 cell, mutant strain of Neurospora crassa (protoplasts); test: os-1 whole cell assay (fungal cell wall biosynthesis inhibition); type: cell-based; parameters: key to Cell Wall Regenertion: +: Normal cell-wall regeneration; −: Inhibited cell-wall regeneration; key to Cell Growth: +: Normal growth, no inhibition of growth observed; −: Inhibited fungal growth, zone of inhibition is observed; settings: 25° C., 72 hours
[9] = test system: Saccharomyces cerevisiae (ATCC no. 26108); test: Broth assay; type: cell-based; parameters: key to IC50: 0: No fungal growth; 1: growth is 25% of control; 2: growth is 50% of control; 3: growth is 75% of control; 4: growth equivalent to control; 5: growth is greater than control; settings: for IC50: lowest concentration inhibiting growth by at least 50%
Experimental: as §1, §2

[10] = test system: Aspergillus fumigatis; test: Preliminary in vitro fungal growth inhibition (turbidity of cultures); type: cell-based; settings: 0, 2.8, 11.25, or 45 μg/ml; 24 hours; 10,000-50,000 CFU per ml
Experimental: (§3) In a preliminary experiment, recombinant human chitinase was tested for inhibition of fungal growth in vitro. The two fungi Candida albicans and Aspergillus fumigatis are serious pathogens for immunocompromised patients. Both Candida and Aspergillus were grown in RPMI growth media at 37° C. to approximately 10,000-50,000 colony forming units (CFU) per ml. Recombinant human chitinase (produced in COS cells as described in Example 5A) was added to cultures at 0, 2.8, 11.25, or 45 μg/ml. After 24 hours, fungal growth was assessed by turbidity of cultures. […] The concentration of fungi tested, however, is much higher than the fungal burden seen during fungal infection in vivo. Different results may be obtained under different conditions, e.g., with a lower fungal burden, or when human chitinase is tested in combination with other anti-fungal agents.

[11] = test system: Candida albicans; test: as above; type: cell-based; settings: 0, 2.8, 11.25, or 45 μg/ml; 24 hours; 10,000-50,000 CFU per ml
Experimental: as §3

[12] = test system: os-1 cell, mutant strain of Neurospora crassa (protoplasts); test: os-1 whole cell assay (fungal cell wall biosynthesis inhibition); type: cell-based; parameters: key to Cell Wall Regenertion: +: Normal cell-wall regeneration; −: Inhibited cell-wall regeneration; key to Cell Growth: +: Normal growth, no inhibition of growth observed; −: Inhibited fungal growth, zone of inhibition is observed
Experimental: as §1
The os-1 whole cell assay, which identifies inhibitors of fungal cell wall biosynthesis, was conducted essentially according to Selitrennikoff, supra, using an inoculum of 1.5×10^5 protoplasts/ml embedded in agar (Vogel's Medium N, 7.5% sorbitol, 1.5 % sucrose, 10 μg/ml nicotiniamide and 1 % agar) incubated at 25° C. for 72 hours. The cultures were monitored for changes in growth and morphology after disks containing 50 μg of the sample (A: recombinant human chitinase, B: buffer control, C: control protein, D: a bacterial lysate with chitinase activity, or a known anti-fungal agent) were placed on the agar medium. The os-1 cell is a mutant strain of Neurospora crassa that grows as protoplasts without cell walls when incubated under certain conditions at 37° C., but regenerates a cell wall under the appropriate conditions when the temperature is shifted to about 22° C.

[13] = parameters: species or system Female Balb/c mice; settings: mouse, in vivo, iv
Experimental: The pharmacokinetics of recombinant human chitinase in mice were determined as follows. Female Balb/c mice, 6-8 weeks old, were injected intravenously in the tail vein with 0.5 mg/kg, 5.0 mg/kg and 50 mg/kg recombinant human chitinase. For each dose, mice were terminally bled at 0.01, 0.25, 1, 8 and 24 hours after injection (2 animals were used per time point per dosage). Serum samples were then assayed for chitinase activity and concentration.

[14] = test system: test fungal organism; test: Broth assay, overall conclusion; type: cell-based
Experimental: as §2

[15] = lowest concentration inhibiting growth by at least 90%
[16] = 50 μg/ml, 35° C., 48 hours, turbidity score

recombinant product: C-terminal truncated human chitinase analog (serine at position 370) expressed in E. coli from the Ara-chitinase plasmid at 25° C.
chitinase catalytic activity ([1]; E. coli transformants grown at 25° C., in words): exhibited chitinase catalytic activity

C[C@@H]1[C@H](O)[C@@H](C)/C=C/C=C/C=C/C=C/C=C/C=C/C=C/[C@H](O[C@@H]2O[C@H](C)[C@@H](O)[C@H](N)[C@@H]2O)C[C@@H]2O[C@](O)(C[C@@H](O)C[C@@H](O)[C@H](O)CC[C@@H](O)C[C@@H](O)CC(=O)O[C@H]1C)C[C@H](O)[C@H]2C(=O)O [amphotericin B]
Candida albicans Growth ([2]; 400 ng/disk): − | Aspergillus fumigatus Growth ([3]; 400 ng/disk): − | IC90 [4, 15]: 2 μg/ml (growth is 50% of control) | IC90 [5, 15]: 0.5 µg/mL (≈ 0.541 µM) | IC90 [6, 15]: >16 µg/mL | IC90 [7, 15]: 0.5 µg/mL | Cell Growth ([8]; 400 ng/disk): − | Cell Wall Regenertion ([8]; 400 ng/disk): + | Morphology ([8]; 400 ng/disk): cell debris | Radial measurement of inhibited growth from center of disk ([8]; 400 ng/disk): 10 mm^e

OC(Cn1cncn1)(Cn1cncn1)c1ccc(F)cc1F [fluconazole]
IC50 ([5]; Candida albicans, ATCC90028, read-out: IC50): 0.5 µg/mL (≈ 1.63 µM) | IC50 [6]: 16 µg/mL (≈ 52.2 µM) | IC50 [7]: 8 µg/mL | IC50 [9]: 4 µg/mL

C[C@@H]([C@H](N)C(=O)N[C@H](C(=O)O)[C@H]1O[C@@H](n2ccc(=O)[nH]c2=O)[C@H](O)[C@@H]1O)[C@H](O)c1ccc(O)cn1 [nikkomycin Z]
Cell Growth ([8]; 1 μg/disk): + | Cell Wall Regenertion ([8]; 1 μg/disk): − | Morphology ([8]; 1 μg/disk): protoplasts | Radial measurements of inhibited cell-wall regeneration from center of disk ([8]; 1 μg/disk): 30 mm^d

Nc1nc(=O)[nH]cc1F [5-fluorocytosine]
IC50 ([4]; Aspergillus fumigatus, ATCC16424, lowest concentration inhibiting growth by at least 50%): 16 µg/mL (≈ 124 µM) | IC50 [5]: 2 μg/ml (growth is 50% of control) | IC50 [6]: 0.06 µg/mL (≈ 0.465 µM) | IC50 [7]: > 64 µg/mL | IC50 ([9]; Saccharomyces cerevisiae, ATCC26108, read-out: IC50): 0.125 µg/mL

A: rH-Chitinase: Recombinant human chitinase (full length, pRc/CMV-MO-13B, SEQ ID NO: 4) produced in COS cells according to Example 5A
chitotriosidase activity ([1]; purified protein produced in COS cells, 37° C., 15 minutes, pH 5.2): 90 nm/min per mg protein | fungal growth assessed by turbidity of cultures [10]: comparable rates, independent of chitinase concentration | fungal growth assessed by turbidity of cultures [11]: comparable rates, independent of chitinase concentration | Candida albicans Growth ([2]; 50 μg/disk): + | Aspergillus fumigatus Growth ([3]; 50 μg/disk): + | Aspergillus fumigatus Growth [4, 16]: 3 (growth is 75% of control) | Candida albicans Growth [5, 16]: 2 (growth is 50% of control) | C. albicans-polyene resistant Growth [6, 16]: 2 (growth is 50% of control) | Neurospora crassa Growth [7, 16]: 4 | Saccharomyes cerevisiae Growth [9, 16]: 2 (growth is 50% of control) | conclusion in the os-1 whole cell assay (in words) [12]: cell wall specific inhibitor | Cell Growth ([12]; 50 μg/disk, 25° C., 72 hours): + | Cell Wall Regenertion ([12]; 50 μg/disk, 25° C., 72 hours): − | Morphology ([12]; 50 μg/disk, 25° C., 72 hours): protoplasts | Radial measurements of inhibited cell-wall regeneration from center of disk ([12]; 50 μg/disk, 25° C., 72 hours): 10 mm^d | MRT (total body mean residence time) ([13]; 0.5 mg/kg): 45 min | MRT (total body mean residence time) ([13]; 5 mg/kg): 45.6 min | MRT (total body mean residence time) ([13]; 50 mg/kg): 159 min | conclusion in the broth assay (in words) [14]: mildly anti-fungal
